Results: US8784849B2, “Hydroxyapatite-targeting poly(ethylene glycol) and related polymers” (Nektar Therapeutics, priority 2000, dated 2014)
Values belong to the molecule of their own block, whether it stands above or below them.

Key:
[1] = Binding of PEG-AHPDP derivatives to hydroxyapatite in vitro; conditions: 37° C., 5 mM sodium phosphate buffer pH 7.2
Protocol: Hydroxyapatite (Fast Flow, Fluka, 12 mg) was equilibrated in 1 ml of 5 mM sodium phosphate buffer, pH 7.2 for 24 hours at 37° C.

[2] = Excretion study of 125I-labelled PEG derivatives in mice; type: in vivo, Male ICR mice; conditions: for average % [125I] captured (urine and feces, % of total counts injected): 2 μCi i.v. tail vein, n=6; for radiolabeled compound excreted in the urine: 8 hr collection, share of captured radiolabel
Protocol: PEG(2,000)-α-L-tyrosine-ω-AHPDP and mPEG(2,000)-α-L-tyrosine were iodinated using a standard chloramine-T procedure (Bolton, Methods Enzymol. 124: 18-29, 1986). In brief, a 15 μL aliquot of PEG(2,000)-α-L-tyrosine-ω-AHPDP or mPEG(2,000)-α-L-tyrosine (2 μg/μL total weight) was mixed with 50 μL of […] phosphate buffer. To this was added 1 mCi of NaI^125 and 10 μL of Chloramine-T (1 μg/μL). The mixture was finger vortexed for 30s followed by addition of 100 μL-Cys (2 µg/µL), followed by another 30s of finger vortexing. The purification was carried out by reverse-phase chromatography. The samples were eluted at 37° C. using a curvilinear gradient of 0.1% trifluroacetic acid (TFA) in acetonitrile (19-63%) versus 0.1% aqueous TFA over 30 min at 1.5 ml.min^−1.
Male ICR mice (20-25 g) were administered either 2 μCi of PEG(2,000)-α-L-tyrosine-ω-AHPDP or mPEG(2,000)-α-L-tyrosine via tail vein injection (100 μL; i.v.). The mice were placed into metabolism cages and urine and feces were collected at the following time points (1, 2, 3, 4, 6, & 8 hr post-injection) (n=6).

[3] = Binding of PEG(2,000)-α-AHPDP-ω-protein to hydroxyapatite in vitro; conditions: 37° C., 5 mM sodium phosphate buffer pH 7.2; for percentage adsorbed to hydroxyapatite: by 1^1/2 hour incubation; for adsorption to hydroxyapatite (in words): 1^1/2 hour incubation
Protocol: Hydroxyapatite (Fast Flow, Fluka, 120 mg) was equilibrated in 1 ml of 5 mM sodium phosphate buffer, pH 7.2 for 24 hours at 37° C. Native lysozyme or the PEG-lysozyme conjugate was mixed with the hydroxyapatite suspension in a 1:1 volume ratio and stirred at 37° C. Samples were taken from the mixture at various time points and analyzed for the percentage of unbound protein or PEG-protein conjugate by gel permeation chromatography. […] All samples had similar protein concentrations.

[4] = in vivo; cited from earlier work

percentage adsorbed to hydroxyapatite [3]: 100%
Molecule: 3-PEGmer: PEG-lysozyme multimer with three PEG(2,000)-α-AHPDP chains, separated by size exclusion [Example 3-PEGmer]

adsorption to hydroxyapatite (in words) [3]: did not adsorb
Molecule: Native lysozyme: chicken egg white lysozyme, MW=14,300 Da, used as a model protein [reference compound]

adsorption to hydroxyapatite (in words) [3]: limited adsorption
Molecule: 1-PEGmer: PEG-lysozyme multimer with one PEG(2,000)-α-AHPDP chain, separated by size exclusion [Example 1-PEGmer]

percentage adsorbed to hydroxyapatite [3]: 100%
Molecule: 2-PEGmer: PEG-lysozyme multimer with two PEG(2,000)-α-AHPDP chains, separated by size exclusion [Example 2-PEGmer]

adsorption half-life on hydroxyapatite [1]: around 1 min
Molecule: NCCC(O)(P(=O)(O)O)P(=O)(O)O [AHPDP, 3-amino-1-hydroxypropane-1,1-diphosphonic acid, reference compound]

The remaining lines, values behind:

Molecule: PEG(5,000)-α-amine-ω-AHPDP
adsorption half-life on hydroxyapatite [1]: 45 min

Molecule: PEG(2,000)-α-tyrosine-ω-AHPDP [PEG(2,000)-α-L-tyrosine-ω-AHPDP]
average % [125I] captured (urine and feces, % of total counts injected) ([2]; 8 hour time course): 7.7% | [125I] retained in the body versus mPEG(2,000)-α-L-tyrosine (in words) ([2]; i.v., 8-hour period): significantly greater percentage | fold lower percentage of [125I] captured than mPEG(2,000)-α-L-tyrosine ([2]; i.v., 8 hour time course): 5 fold | radiolabeled compound excreted in the urine ([2]; i.v.): ~95% | adsorption half-life on hydroxyapatite [1]: 19 min

Molecule: PEG(2,000)-α-methoxy-ω-L-tyrosine
average % [125I] captured (urine and feces, % of total counts injected) ([2]; 8 hour time course): 47.5% | radiolabeled compound excreted in the urine ([2]; i.v.): greater than 95% | adsorption to hydroxyapatite (in words) ([1]; 0.1-1.0 mg/ml): did not show any adsorption

Molecule: CC(O)(P(=O)(O)O)P(=O)(O)O [Etidronate]
half-life in bone [4]: greater than 90 days
